According to patent US20210290648A1, “Potentiation of B-Lactam Antibiotics and B-Lactam/B-Lactamase Inhibitor Combinations Against Multidrug and Extensively Drug-Resistant Pseudomonas Aeruginosa Using Non-Ribosomal Tobramycin-Cyclam Conjugates” (University of Manitoba, priority 2018, published 2021):

Tests used:
Format in all cases: cell-based, Pseudomonas aeruginosa
PA 262 = experiment: Checkerboard combination study / MIC
PA 101885 = experiment: Checkerboard combination study / MIC
WT P. aeruginosa PAO1 = experiment: Checkerboard combination study / MIC
PAO750 = tested on: PAO750
Excerpt: (§1) PAO200 is a tnexA-rnexB-oprM deletion strain while PAO750 lacks five important RND pumps (McxAB-OprM, MexCD-OprJ, MexEF-OprN, Mex JK, and MexXY) and the outer membrane protein OpmH (46, 47). Some of these pumps are homologues of broad substrate specificities that extrude different classes of antimicrobial agents and confer resistance on P. aeruginosa (48).
(§2) Antimicrobial Susceptibility Assay. The in vitro antimicrobial activity of all compounds/antibiotics against a panel of bacteria was evaluated by microbroth dilution method in accordance with the Clinical and Laboratory Standards Institute (CLSI) guidelines. Overnight grown bacterial cultures were diluted in saline to achieve a 0.5 McFarland turbidity, followed by 1:50 dilution in Mueller-Hinton broth (MHB) for inoculation to a final concentration of approximately 5×10^5CFU/mL. The antimicrobial agents were 2-fold serially diluted in MHB in a 96-well plate and incubated at 37° C. with equal volumes of inoculum for 18 h. The lowest concentration that prevented the visible growth of bacteria was defined as the MIC for each antimicrobial agent. The broth with or without bacterial cells was used as positive or negative control, respectively.
(§3) Checkerboard Assay. Combination studies with different antibiotics were performed in 96-well plates as previously described (22). Briefly, the antibiotic of interest was serially diluted in MHB along the abscissa while the adjuvant (newly synthesized conjugates) was serially diluted in MHB along the ordinate. This creates a 10×7 matrix wherein each well consists of a combination of different antibiotic and adjuvant concentrations. Overnight grown bacterial cultures were diluted in saline to achieve a 0.5 McFarland turbidity, followed by 1:50 dilution in Mueller-Hinton broth (MHB) for inoculation to a final concentration of approximately 5×10^5CFU/mL. Equal volume of this bacterial culture was then added to each well and incubated at 37° C. for 18 h. After incubation, the plates were read on EMax® Plus microplate reader (Molecular Devices, Sunnyvale, Calif., USA) at 590 nm. MIC was recorded as wells with the lowest concentration of drugs with no bacterial growth. The fractional inhibitory concentration (FIC) for each antibiotic was calculated by dividing the MIC of the antibiotic in the presence of adjuvant by the MIC of the antibiotic alone. Similarly, the FIC of adjuvant was calculated by dividing the MIC of the adjuvant in the presence of antibiotic by the MIC of the adjuvant alone. FIC index is the sum of both FICs. FIC indices of <0.5 were deemed synergistic; 0.5-4, no interaction; and >4, antagonistic.

PAO200 = tested on: PAO200
Excerpt: as §1, §2, §3

PA 100036 = experiment: Checkerboard combination study / MIC
PA 260 = experiment: Checkerboard combination study / MIC
PA 259 = experiment: Checkerboard combination study / MIC
PA 114228 = experiment: Checkerboard combination study / MIC
[1] = tested on: MDR/XDR P. aeruginosa clinical isolates; experiment: MIC and checkerboard, panel of clinical isolates; details: antibiotic + compound 2 (8.7 μM); resistant P. aeruginosa isolates
PA 101243 = experiment: Checkerboard combination study / MIC; details: PA 101243
PA 264 = experiment: Checkerboard combination study / MIC
[2] = MIC of antibiotic combined with compound 2

## CCN1CCN(C(=O)N[C@@H](C(=O)N[C@@H]2C(=O)N3[C@@H]2SC(C)(C)[C@@H]3C(=O)O)c2ccccc2)C(=O)C1=O [Piperacillin]
PA 262; [2]
  MICCombination (antibiotic): 512 µg/mL
PA 262; antibiotic + compound 2
  FICI: <0.52
PA 262; antibiotic alone
  MICAntibiotic: 1024 µg/mL
PA 262; with compound 2
  FICAntibiotic: 0.500
PA 101885; [2]
  MICCombination (antibiotic): 4 µg/mL
PA 101885; antibiotic + compound 2
  FICI: <0.31
PA 101885; antibiotic alone
  MICAntibiotic: 16 µg/mL
PA 101885; with compound 2
  FICAntibiotic: 0.250
WT P. aeruginosa PAO1; + compound 2 ≤8.7 μM, PAO1
  MIC of antibiotic + Compound 2 in PAO1: 2 µg/mL
  fold change of MIC + Compound 2 in PAO1: 4
WT P. aeruginosa PAO1; Pseudomonas aeruginosa, PAO1, 18 h, antibiotic alone, WT PAO1 (Table 2), read-out: MIC alone
  MIC: 8 µg/mL
WT P. aeruginosa PAO1; antibiotic + compound 1, WT PAO1
  FICI in the presence of ≤10 μM of 1: 0.26
WT P. aeruginosa PAO1; antibiotic + compound 1 ≤10 μM, WT PAO1
  MIC of Antibiotics in the presence of ≤10 μM of 1: 2 µg/mL
WT P. aeruginosa PAO1; antibiotic + compound 2, WT PAO1
  FICI in the presence of ≤10 μM of 2: 0.25
WT P. aeruginosa PAO1; antibiotic + compound 2 ≤10 μM, WT PAO1
  MIC of Antibiotics in the presence of ≤10 μM of 2: 2 µg/mL
WT P. aeruginosa PAO1; antibiotic + compound 3, WT PAO1
  FICI in the presence of ≤10 μM of 3: 0.25
WT P. aeruginosa PAO1; antibiotic + compound 3 ≤10 μM, WT PAO1
  MIC of Antibiotics in the presence of ≤10 μM of 3: 2 µg/mL
WT P. aeruginosa PAO1; antibiotic alone, PAO1 wild-type (Table 4)
  MIC of antibiotic alone in PAO1: 8 µg/mL
PAO750; + compound 2 ≤8.7 μM, PAO750
  MIC of antibiotic + Compound 2 in PAO750: 0.5 µg/mL
  fold change of MIC + Compound 2 in PAO750: 4
PAO750; antibiotic alone, PAO750 efflux-deficient
  MIC of antibiotic alone in PAO750: 2 µg/mL
PAO200; + compound 2 ≤8.7 μM, PAO200
  MIC of antibiotic + Compound 2 in PAO200: 1 (1) μg/ml
  fold change of MIC + Compound 2 in PAO200: 1 (1)
PAO200; antibiotic alone, PAO200 efflux-deficient
  MIC of antibiotic alone in PAO200: 1 µg/mL
PA 100036; [2]
  MICCombination (antibiotic): 64 µg/mL
PA 100036; antibiotic + compound 2
  FICI: <1.06
PA 100036; antibiotic alone
  MICAntibiotic: 64 µg/mL
PA 100036; with compound 2
  FICAntibiotic: 1.000
PA 260; [2]
  MICCombination (antibiotic): 512 µg/mL
PA 260; antibiotic + compound 2
  FICI: <1.06
PA 260; antibiotic alone
  MICAntibiotic: 512 µg/mL
PA 260; with compound 2
  FICAntibiotic: 1.000
PA 259; [2]
  MICCombination (antibiotic): 256 µg/mL
PA 259; antibiotic + compound 2
  FICI: <0.50
PA 259; antibiotic alone
  MICAntibiotic: 512 µg/mL
PA 259; with compound 2
  FICAntibiotic: 0.500
PA 114228; [2]
  MICCombination (antibiotic): 8 µg/mL
PA 114228; antibiotic + compound 2
  FICI: <0.50
PA 114228; antibiotic alone
  MICAntibiotic: 16 µg/mL
PA 114228; with compound 2
  FICAntibiotic: 0.500
[1]
  resistant isolates reaching CLSI clinical breakpoint: zero out of six
PA 101243; [2]
  MICCombination (antibiotic): 128 µg/mL
PA 101243; antibiotic + compound 2
  FICI: <1.06
PA 101243; antibiotic alone
  MICAntibiotic: 128 µg/mL
PA 101243; with compound 2
  FICAntibiotic: 1.000
PA 264; [2]
  MICCombination (antibiotic): 1024 µg/mL
PA 264; antibiotic + compound 2
  FICI: <0.52
PA 264; antibiotic alone
  MICAntibiotic: 2048 µg/mL
PA 264; with compound 2
  FICAntibiotic: 0.500
